Experimental data published in patent publication US20250276972A1, “COMPOUNDS AS CASEIN KINASE INHIBITORS” (GRITSCIENCE BIOPHARMACEUTICALS CO.,LTD., priority 2020, published 2025).

Molecular target: T1, CK1δ (Homo sapiens, UniProt P48730)
T1 construct: endogenous in cells; host or cells: Bmal1-dLuc or Per2-dLuc U2OS cells
Experiment: CK1δ inhibition (EC50); Bmal1-dLuc or Per2-dLuc U2OS luminescence rhythm period assay
Assay type: cell-based
Conditions: Table 3
Method: Bmall-dLuc or Per2-dLuc U2OS cells were suspended in the culture medium (DMEM supplemented with 10% fetal bovine serum, 0.29 mg/mL L-glutamine, 100 units/mL penicillin, and […] streptomycin) and plated onto 96-well white solid-bottom plates at 200 μL (10,000 cells) per well. After 2 days, 100 μL of the explant medium (DMEM supplemented with 2% B27, 10 mM HEPES, 0.38 mg/mL sodium bicarbonate, 0.29 mg/mL L-glutamine, 100 units/mL penicillin, […], 0.1 mg/mL gentamicin, and 1 mM luciferin, pH 7.2) was dispensed to each well, followed by the application of 1 μL of a compound of the present application (dissolved in DMSO; final concentration was 0.7% in DMSO). The plate was covered with an optically clear film and set to microplate reader (Infinite M200, Tecan).

T1 sequence (P48730 whole entry): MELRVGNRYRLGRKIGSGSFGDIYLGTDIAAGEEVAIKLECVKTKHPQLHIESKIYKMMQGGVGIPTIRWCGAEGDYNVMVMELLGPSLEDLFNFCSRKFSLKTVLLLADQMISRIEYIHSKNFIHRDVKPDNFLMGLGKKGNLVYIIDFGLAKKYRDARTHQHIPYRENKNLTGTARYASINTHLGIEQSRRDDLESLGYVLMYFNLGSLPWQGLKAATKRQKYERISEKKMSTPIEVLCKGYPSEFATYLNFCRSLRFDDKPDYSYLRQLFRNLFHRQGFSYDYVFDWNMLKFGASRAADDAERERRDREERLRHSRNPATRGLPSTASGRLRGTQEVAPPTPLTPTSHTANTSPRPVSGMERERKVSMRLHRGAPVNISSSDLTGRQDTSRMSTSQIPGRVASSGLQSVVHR

Row | EC50 [nM] | SMILES
1 | 200 | CC(=O)N1CCn2nc(-c3ccc(F)cc3)c(-c3ccnc(NC(=O)CC4CC4)c3)c2C1 [Compound I-75, N-(4-(5-acetyl-2-(4-fluorophenyl)-4,5,6,7-tetrahydropyrazolo[1,5-a]pyrazin-3-yl)pyridin-2-yl)-2-cyclopropylacetamide]
2 | 600 | CCCC(=O)Nc1cc(-c2c(-c3ccc(F)cc3)nn3c2CN(C(=O)CCC)CC3)ccn1 [Compound I-56, N-(4-(5-butyryl-2-(4-fluorophenyl)-4,5,6,7-tetrahydropyrazolo[1,5-a]pyrazin-3-yl)pyridin-2-yl)butyramide]
3 | 500 | CC(=O)Nc1cc(-c2c(-c3ccc(F)cc3)nn3c2CN(C(C)=S)CC3)ccn1 [Compound I-57]
4 | 1700 | CC(=O)Nc1cc(-c2c(-c3ccc(F)cc3)nn3c2CN(Cc2ccccc2)CC3)ccn1 [Compound I-95, N-(4-(5-benzyl-2-(4-fluorophenyl)-4,5,6,7-tetrahydropyrazolo[1,5-a]pyrazin-3-yl)pyridin-2-yl)acetamide]
5 | 1600 | CC(=O)N1CCn2nc(-c3ccc(F)cc3)c(-c3ccnc(Nc4ccccc4)c3)c2C1 [Compound I-74, 1-(2-(4-fluorophenyl)-3-(2-(phenylamino)pyridin-4-yl)-6,7-dihydropyrazolo[1,5-a]pyrazin-5(4H)-yl)ethan-1-one]
6 | 700 | CC(=O)Nc1cc(-c2c(-c3ccc(F)cc3)nn3c2CNCC3)ccn1 [Compound I-99, N-(4-(2-(4-fluorophenyl)-4,5,6,7-tetrahydropyrazolo[1,5-a]pyrazin-3-yl)pyridin-2-yl)acetamide]
7 | 2100 | CC(C)C(=O)Nc1cc(-c2c(-c3ccc(F)cc3)nn3c2CN(C(=O)C(C)C)CC3)ccn1 [Compound I-98, N-(4-(2-(4-fluorophenyl)-5-isobutyryl-4,5,6,7-tetrahydropyrazolo[1,5-a]pyrazin-3-yl)pyridin-2-yl)isobutyramide]
8 | 900 | CCC(=O)Nc1cc(-c2c(-c3ccc(F)cc3)nn3c2CN(C(=O)CC)CC3)ccn1 [Compound I-97, N-(4-(2-(4-fluorophenyl)-5-propionyl-4,5,6,7-tetrahydropyrazolo[1,5-a]pyrazin-3-yl)pyridin-2-yl)propionamide]

Continued, compound first:

Row | SMILES | EC50 [nM]
9 | CC(=O)Nc1cc(-c2c(-c3ccc(F)cc3)nn3c2CN(C2COC2)CC3)ccn1 [Compound I-46, N-(4-(2-(4-fluorophenyl)-5-(oxctan-3-yl)-4,5,6,7-tetrahydropyrazolo[1,5-a]pyrazin-3-yl)pyridin-2-yl)acetamide] | 1200
10 | CNCCN1CCn2nc(-c3ccc(F)cc3)c(-c3ccnc(NC(C)=O)c3)c2C1 [Compound I-41, N-(4-(2-(4-fluorophenyl)-5-(2-(methylamino)ethyl)-4,5,6,7-tetrahydropyrazolo[1,5-a]pyrazin-3-yl)pyridin-2-yl)acetamide] | 600
11 | Cc1cc(-c2c(-c3ccc(F)cc3)nn3c2CN(C2COC2)CC3)ccn1 [Compound I-12, 2-(4-fluorophenyl)-3-(2-methylpyridin-4-yl)-5-(oxetan-3-yl)-4,5,6,7-tetrahydropyrazolo[1,5-a]pyrazine] | 20000
12 | CS(=O)(=O)N1CCn2nc(-c3ccc(F)cc3)c(-c3ccnc(N)c3)c2C1 [Compound I-25, 4-(2-(4-fluorophenyl)-5-(methylsulfonyl)-4,5,6,7-tetrahydropyrazolo[1,5-a]pyrazin-3-yl)pyridin-2-amine] | 670
13 | CC(=O)Nc1cc(-c2c(-c3ccc(F)cc3)nn3c2CN(CC(F)(F)F)CC3)ccn1 [Compound I-29, N-(4-(2-(4-fluorophenyl)-5-(2,2,2-trifluoroethyl)-4,5,6,7-tetrahydropyrazolo[1,5-a]pyrazin-3-yl)pyridin-2-yl)acetamide] | 600
14 | CC(=O)Nc1cc(-c2c(-c3ccc(F)cc3)nn3c2CN(C(C)C)CC3)ccn1 [Compound I-27, N-(4-(2-(4-fluorophenyl)-5-isopropyl-4,5,6,7-tetrahydropyrazolo[1,5-a]pyrazin-3-yl)pyridin-2-yl)acetamide] | 500
15 | CC(=O)Nc1cc(-c2c(-c3ccc(F)cc3)nn3c2CN(C2CC2)CC3)ccn1 [Compound I-28] | 600
